Here are results for two compounds from patent US5939318A, “Cholesterol disposal fusion enzymes” (Regents of the University of California, priority 1996, dated 1999).

For experiment [1], the target named is fusion enzyme F2, H3N-P450scc-AdRed-Adx-COOH (human P450scc, adrenodoxin reductase 18- form, adrenodoxin) (Homo sapiens, UniProt P05108+P22570). Conditions: substrate 0.5 to 5.0 μM, 24 h incubation, F2-transfected COS-1 cells. The procedure: (§1) Cells were maintained at 37° C. in 5% CO2.
(§2) All samples were assayed in triplicate.

The target of experiment [2] is human P450scc (SEQ ID NO: 2), natural three-component system co-expressed with adrenodoxin and adrenodoxin reductase (Homo sapiens, UniProt P05108). The settings on record: substrate 0.5 to 5.0 μM, 24 h incubation, triply transfected COS-1 cells. The procedure: as §1, §2
Sequence of human P450scc (SEQ ID NO: 2), natural three-component system co-expressed with adrenodoxin and adrenodoxin reductase (P05108 40-521 I301M): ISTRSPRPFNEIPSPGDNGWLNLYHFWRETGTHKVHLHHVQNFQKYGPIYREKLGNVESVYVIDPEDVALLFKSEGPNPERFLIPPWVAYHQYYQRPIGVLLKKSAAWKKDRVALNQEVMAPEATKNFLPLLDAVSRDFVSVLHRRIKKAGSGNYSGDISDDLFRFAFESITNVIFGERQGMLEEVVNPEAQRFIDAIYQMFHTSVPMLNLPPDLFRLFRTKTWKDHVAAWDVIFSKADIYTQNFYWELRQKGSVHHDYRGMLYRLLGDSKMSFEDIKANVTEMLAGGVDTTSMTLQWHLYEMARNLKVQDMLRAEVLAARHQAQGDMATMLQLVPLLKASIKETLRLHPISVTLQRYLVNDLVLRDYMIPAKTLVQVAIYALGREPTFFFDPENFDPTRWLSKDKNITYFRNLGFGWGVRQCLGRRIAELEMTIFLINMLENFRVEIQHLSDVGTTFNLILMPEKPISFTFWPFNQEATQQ
The target in a further experiment is T1, cytochrome P450scc (Bos taurus, UniProt P00189).
T1 sequence (P00189 40-520): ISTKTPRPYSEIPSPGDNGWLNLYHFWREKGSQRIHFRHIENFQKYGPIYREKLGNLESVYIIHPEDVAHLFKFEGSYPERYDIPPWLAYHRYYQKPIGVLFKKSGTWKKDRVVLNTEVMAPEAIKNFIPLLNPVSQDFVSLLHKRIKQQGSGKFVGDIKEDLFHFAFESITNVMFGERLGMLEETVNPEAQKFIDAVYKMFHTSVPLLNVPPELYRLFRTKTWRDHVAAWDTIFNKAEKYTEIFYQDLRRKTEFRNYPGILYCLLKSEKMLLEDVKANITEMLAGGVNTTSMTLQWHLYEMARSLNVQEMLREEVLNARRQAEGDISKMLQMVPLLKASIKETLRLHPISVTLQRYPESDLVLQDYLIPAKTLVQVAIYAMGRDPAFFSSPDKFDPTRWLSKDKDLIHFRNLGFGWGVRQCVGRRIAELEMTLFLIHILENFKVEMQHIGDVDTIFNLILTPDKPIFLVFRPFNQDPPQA
Conditions: Morisaki et al 1980; cited from earlier work.

Sequence of fusion enzyme F2, H3N-P450scc-AdRed-Adx-COOH (human P450scc, adrenodoxin reductase 18- form, adrenodoxin) (P05108+P22570 fused): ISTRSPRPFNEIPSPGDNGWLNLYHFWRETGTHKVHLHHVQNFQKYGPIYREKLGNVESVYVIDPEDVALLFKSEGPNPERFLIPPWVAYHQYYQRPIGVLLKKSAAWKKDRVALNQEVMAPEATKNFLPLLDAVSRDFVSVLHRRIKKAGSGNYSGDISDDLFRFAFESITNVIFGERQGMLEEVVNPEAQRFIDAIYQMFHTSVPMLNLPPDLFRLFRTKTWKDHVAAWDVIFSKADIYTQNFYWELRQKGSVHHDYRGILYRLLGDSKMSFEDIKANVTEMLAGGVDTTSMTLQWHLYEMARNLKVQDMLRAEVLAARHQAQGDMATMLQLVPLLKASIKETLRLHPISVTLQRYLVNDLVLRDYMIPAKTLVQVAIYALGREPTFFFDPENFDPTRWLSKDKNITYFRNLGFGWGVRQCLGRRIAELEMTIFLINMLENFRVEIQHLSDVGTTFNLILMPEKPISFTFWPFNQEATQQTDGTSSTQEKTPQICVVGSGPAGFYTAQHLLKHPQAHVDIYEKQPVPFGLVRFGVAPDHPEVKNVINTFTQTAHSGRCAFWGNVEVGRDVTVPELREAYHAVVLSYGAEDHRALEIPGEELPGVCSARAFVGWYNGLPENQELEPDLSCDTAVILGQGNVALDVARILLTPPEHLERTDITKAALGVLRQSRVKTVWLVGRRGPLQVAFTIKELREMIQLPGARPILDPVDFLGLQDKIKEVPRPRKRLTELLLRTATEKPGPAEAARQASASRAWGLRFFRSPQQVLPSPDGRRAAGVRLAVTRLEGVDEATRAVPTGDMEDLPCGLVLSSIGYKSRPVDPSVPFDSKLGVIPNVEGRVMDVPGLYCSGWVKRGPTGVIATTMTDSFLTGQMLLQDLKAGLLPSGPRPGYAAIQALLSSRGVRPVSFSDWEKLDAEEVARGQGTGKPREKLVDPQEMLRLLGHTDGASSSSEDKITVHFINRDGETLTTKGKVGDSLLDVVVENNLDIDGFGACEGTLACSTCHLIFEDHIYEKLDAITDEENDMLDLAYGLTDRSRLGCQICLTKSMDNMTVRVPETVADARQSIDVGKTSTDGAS

Broadly, the Km is the concentration of substrate that gives half-maximal velocity. `CC(C)CC[C@@H](O)[C@@H](C)[C@H]1CC[C@H]2[C@@H]3CC=C4C[C@@H](O)CC[C@]4(C)[C@H]3CC[C@]12C` [22R-hydroxycholesterol]: the Km was 2.85 µM in experiment [1] and 0.37 µM in experiment [2] (dose-response data). Further, the figures for the Vmax in experiment [1] (pregnenolone in culture medium) and in experiment [2] were 9.1 ng/ml/24 h and 1.7 ng pregnenolone/ml of culture medium/24 h, respectively.

With `CC(C)CCC[C@@H](C)[C@H]1CC[C@H]2[C@@H]3CC=C4C[C@@H](O)CC[C@]4(C)[C@H]3CC[C@]12C` [cholesterol], on cytochrome P450scc, the “turnover (cholesterol converted per enzyme)” value was “about 1 mole of cholesterol per mole of enzyme per second”.
